From patent US20250221979A1, “NOVEL HETEROCYCLIC COMPOUND” (SHOUYAO HOLDINGS (BEIJING) CO., LTD., priority 2022, published 2025) come the findings set out here.

Each structure is given as a SMILES string.

Chain of human MAT2A enzyme (P31153 whole entry): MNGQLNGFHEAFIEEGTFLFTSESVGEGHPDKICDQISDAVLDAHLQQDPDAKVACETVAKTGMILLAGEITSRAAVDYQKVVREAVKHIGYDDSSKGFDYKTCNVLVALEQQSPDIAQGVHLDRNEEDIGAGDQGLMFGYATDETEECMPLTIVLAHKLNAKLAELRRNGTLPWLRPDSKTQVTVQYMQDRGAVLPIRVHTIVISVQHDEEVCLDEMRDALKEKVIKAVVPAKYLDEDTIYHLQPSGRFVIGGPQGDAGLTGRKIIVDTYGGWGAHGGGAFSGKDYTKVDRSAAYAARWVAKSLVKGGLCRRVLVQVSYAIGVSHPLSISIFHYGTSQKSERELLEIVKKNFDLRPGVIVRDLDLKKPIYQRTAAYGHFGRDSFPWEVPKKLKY

The assay addresses human MAT2A enzyme (Homo sapiens (Human), UniProt P31153). Description: In vitro enzymatic inhibition activity assay on MAT2A (PiColorLock phosphate detection). Type of assay: biochemical. As to conditions: purified human MAT2A 10 nM, ATP 50 μM, L-methionine 100 μM, 6 h at 23° C.; read-out: MAT2A inhibitory activity IC50. Here is the method: Enzymatic activity assays of compounds of this patent against MAT2A (to detect half inhibitory concentration IC50 values of the compounds) were performed using the phosphate detection kit PiColorLockTM (ab270004, purchased from Abcam). This method utilized the principle that purified human MAT2A enzyme catalyzes the formation of S-adenosylmethionine (SAM) from L-methionine and ATP to release free phosphate, and used the spectrophotometric method to quantify phosphate, so as to determine the enzymatic activity of MAT2A. Compounds were diluted in a 10-fold gradient starting at 1 mM with 100% DMSO (for a total of 8 concentrations) and 2 μL of each concentration was added to 48 μL of reaction buffer (50 mM Tris-HCl PH 7.5, 50 mM KCl, 10 mM MgCl2, 0.01% Brij-35, 0.01% BSA, 1 mM DTT) and mixed well. The final diluted compound was prepared, and 5 μL of MAT2A enzyme (final concentration of 10 nM), 5 μL of ATP (final concentration of 50 μM), and 5 μL of L-methionine (final concentration of 100 μM) were added to each well of a 384-well plate (#3701, purchased from CORNING). After the 384-well plate was placed in the incubator at 23° C. for 6 h, 5 μL of PiColorLock reagent diluted Accelerator (dilution ratio 1:100) was added to each well, and the reaction was stopped by incubating in the incubator at 23° C. for 5 min. 2 μL of Stabiliser was added, the absorbance was read at 630 nm on BMG CLARIOstar, and the IC50 value of the compound was calculated by using GraphPad Prism software.
Under the conditions of this experiment, the inhibition of MAT2A by test compounds can be expressed as an IC50 value for the inhibition of the level of phosphate production during the enzymatic reaction.
The IC50 is the concentration at which inhibition is half-maximal. On to `COC(=O)c1c(N)c2ccc(C)cc2n(-c2cccc3cnccc23)c1=O` [Example 205, methyl 4-amino-1-(isoquinolin-5-yl)-7-methyl-2-oxo-1,2-dihydroquinoline-3-carboxylate], for which the IC50 amounted to 4.47 nM.

Consider `COC(=O)c1c(N)c2ccc(Br)cc2n(-c2ccc(OC)nc2)c1=O` [Example 211, methyl 4-amino-7-bromo-1-(6-methoxypyridin-3-yl)-2-oxo-1,2-dihydroquinoline-3-carboxylate], for which the IC50 is 1.84 nM.

`COC(=O)c1c(N)c2ccc(C(F)(F)F)cc2n(-c2ccc(OC)nc2)c1=O` [Example 212, methyl 4-amino-1-(6-methoxypyridin-3-yl)-2-oxo-7-(trifluoromethyl)-1,2-dihydroquinoline-3-carboxylate]: the IC50 was 2.83 nM.

As for `COC(=O)c1c(N)c2ccc(C(F)(F)F)cc2n(-c2ccc(C)nc2)c1=O` [Example 215, methyl 4-amino-1-(6-methylpyridin-3-yl)-2-oxo-7-(trifluoromethyl)-1,2-dihydroquinoline-3-carboxylate], the IC50 was determined as 2.5 nM.

On to `COC(=O)c1c(N)c2ccc(Br)cc2n(-c2cccc3c(Cl)nccc23)c1=O` [Example 216, methyl 4-amino-1-(1-chloroisoquinolin-5-yl)-7-bromo-2-oxo-1,2-dihydroquinoline-3-carboxylate], for which the IC50 stood at 2.34 nM.

Take `COC(=O)c1c(N)c2ccc(Br)cc2n(-c2ccc3ccncc3c2)c1=O` [Example 219, methyl 4-amino-7-bromo-1-(isoquinolin-7-yl)-2-oxo-1,2-dihydroquinoline-3-carboxylate]: the IC50 is 1.87 nM.

With `COC(=O)c1c(N)c2ccc(Br)cc2n(-c2ccc3nccnc3c2)c1=O` [Example 220, methyl 4-amino-7-bromo-2-oxo-1-(quinoxalin-6-yl)-1,2-dihydroquinoline-3-carboxylate], the half-maximal inhibitory concentration (IC50) was 2.07 nM.

With `COC(=O)c1c(N)c2ccc(Br)cc2n(-c2cccc3c2COC3)c1=O` [Example 222, methyl 4-amino-7-bromo-1-(1,3-dihydro-2-benzofuran-4-yl)-2-oxo-1,2-dihydroquinoline-3-carboxylate], the 50% inhibitory concentration (IC50) turned out to be 8.38 nM.

For `COC(=O)c1c(N)c2ccc(C(F)(F)F)cc2n(-c2ccc3ccncc3c2)c1=O` [Example 224, methyl 4-amino-1-(isoquinolin-7-yl)-2-oxo-7-(trifluoromethyl)-1,2-dihydroquinoline-3-carboxylate], the IC50 is 2.81 nM.

Turning to `COC(=O)c1c(N)c2ccc(I)cc2n(-c2cnc(Cl)cc2C)c1=O` [Example 225, methyl 4-amino-1-(6-chloro-4-methylpyridin-3-yl)-7-iodo-2-oxo-1,2-dihydroquinoline-3-carboxylate], the IC50 turned out to be 3.11 nM.

Turning to `COC(=O)c1c(N)c2ccc(I)cc2n(-c2ccc(Cl)c3cnccc23)c1=O` [Example 227, methyl 4-amino-1-(8-chloroisoquinolin-5-yl)-7-iodo-2-oxo-1,2-dihydroquinoline-3-carboxylate], the half-maximal inhibitory concentration (IC50) came out at 1.96 nM.

For `COC(=O)c1c(N)c2ccc(C(F)(F)F)cc2n(-c2cccc3[nH]ccc23)c1=O` [Example 229, methyl 4-amino-1-(1H-indol-4-yl)-2-oxo-7-(trifluoromethyl)-1,2-dihydroquinoline-3-carboxylate], the IC50 is 4.18 nM.

Regarding `COC(=O)c1c(N)c2ccc(Br)cc2n(-c2cccc3c(C)nccc23)c1=O` [Example 231, methyl 4-amino-1-(1-methylisoquinolin-5-yl)-7-bromo-2-oxo-1,2-dihydroquinoline-3-carboxylate], the IC50 stood at 2.36 nM.

On to `COC(=O)c1c(N)c2ccc(C(F)(F)F)cc2n(-c2ccc(N)cc2C)c1=O` [Example 237, methyl 4-amino-1-(4-amino-2-methylphenyl)-2-oxo-7-(trifluoromethyl)-1,2-dihydroquinoline-3-carboxylate], for which the IC50 stood at 1.64 nM.

For `COC(=O)c1c(N)c2ccc(Br)nc2n(-c2ccc(N)nc2)c1=O` [Example 241, methyl 4-amino-1-(6-aminopyridin-3-yl)-7-bromo-2-oxo-1,2-dihydro-1,8-naphthyridine-3-carboxylate], the IC50 came to 1.42 nM.

For the molecule `COC(=O)c1c(N)c2ccc(I)cc2n(-c2ccc3ccncc3c2)c1=O` [Example 242, methyl 4-amino-7-iodo-1-(isoquinolin-7-yl)-2-oxo-1,2-dihydroquinoline-3-carboxylate], the IC50 came to 1.26 nM.

Take `COC(=O)c1c(N)c2ccc(Br)nc2n(-c2ccc(Cl)nc2C)c1=O` [Example 248, methyl 4-amino-7-bromo-1-(6-chloro-2-methylpyridin-3-yl)-2-oxo-1,2-dihydro-1,8-naphthyridine-3-carboxylate]: the half-maximal inhibitory concentration (IC50) came to 1.69 nM.

In the case of `COC(=O)c1c(N)c2ccc(Br)nc2n(-c2cnc(Cl)cc2C)c1=O` [Example 249, methyl 4-amino-7-bromo-1-(6-chloro-4-methylpyridin-3-yl)-2-oxo-1,2-dihydro-1,8-naphthyridine-3-carboxylate], the IC50 worked out at 2.99 nM.

Take `COC(=O)c1c(N)c2ccc(Br)cc2n(-c2ccccc2N)c1=O` [Example 250, methyl 4-amino-1-(2-aminophenyl)-7-bromo-2-oxo-1,2-dihydroquinoline-3-carboxylate]: the IC50 stood at 6.06 nM.

Take `COC(=O)c1c(N)c2ccc(C(F)(F)F)cc2n(-c2ccc(C)c(N)c2)c1=O` [Example 253, methyl 4-amino-1-(3-amino-4-methylphenyl)-2-oxo-7-(trifluoromethyl)-1,2-dihydroquinoline-3-carboxylate]: the IC50 turned out to be 1.76 nM.

Consider `CCOC(=O)c1c(N)c2ccc(Br)cc2n(-c2ccc3ncoc3c2)c1=O` [Example 257, ethyl 4-amino-1-(benzo[d]oxazol-6-yl)-7-bromo-2-oxo-1,2-dihydroquinoline-3-carboxylate], for which the half-inhibitory concentration (IC50) worked out at 2.09 nM.

`COC(=O)c1c(N)c2ccc(Br)nc2n(-c2ccc(C)nc2)c1=O` [Example 258, methyl 4-amino-7-bromo-1-(6-methylpyridin-3-yl)-2-oxo-1,2-dihydro-1,8-naphthyridine-3-carboxylate]: the concentration for half-maximal inhibition (IC50) was 1.31 nM.

Consider `COC(=O)c1c(N)c2ccc(Br)cc2n(-c2ccc(N)cc2F)c1=O` [Example 259, methyl 4-amino-1-(4-amino-2-fluorophenyl)-7-bromo-2-oxo-1,2-dihydro quinoline-3-carboxylate], for which the half-maximal inhibitory concentration (IC50) was found to be 1.08 nM.

As to `COC(=O)c1c(N)c2ccc(Br)nc2n(-c2ccc(N)cc2)c1=O` [Example 263, methyl 4-amino-1-(4-aminophenyl)-7-bromo-2-oxo-1,2-dihydro-1,8-naphthyridine-3-carboxylate], the IC50 was 1.41 nM.

Take `COC(=O)c1c(N)c2ccc(C(F)(F)F)cc2n(-c2cccc3c[nH]nc23)c1=O` [Example 267, methyl 4-amino-1-(2H-indazol-7-yl)-2-oxo-7-(trifluoromethyl)-1,2-dihydroquinoline-3-carboxylate]: the IC50 worked out at 7.38 nM.

As to `COC(=O)c1c(N)c2ccc(Br)cc2n(-c2ccc3ncoc3c2)c1=O` [Example 268, methyl 4-amino-1-(benzo[d]oxazol-6-yl)-7-bromo-2-oxo-1,2-dihydroquinoline-3-carboxylate], the IC50 worked out at 3.39 nM.

Consider `COC(=O)c1c(N)c2ccc(C(F)(F)F)cc2n(-c2ccc(C(C)O)cc2C)c1=O` (centres unmarked) [Example 269, methyl 4-amino-1-(4-(1-hydroxyethyl)-2-methylphenyl)-2-oxo-7-(trifluoromethyl)-1,2-dihydroquinoline-3-carboxylate], for which the IC50 worked out at 5.95 nM.

As for `COC(=O)c1c(N)c2ccc(C(F)(F)F)cc2n(-c2ccc([C@H](C)O)cc2)c1=O` [Example 271, methyl 4-amino-1-(4-(1-(S)-hydroxyethyl)phenyl)-2-oxo-7-(trifluoromethyl)-1,2-dihydroquinoline-3-carboxylate], the IC50 turned out to be 1.83 nM.

As for `COC(=O)c1c(N)c2ccc(C(F)(F)F)cc2n(-c2ccc(N)cc2)c1=O` [Example 273, methyl 4-amino-1-(4-aminophenyl)-2-oxo-7-(trifluoromethyl)-1,2-dihydroquinoline-3-carboxylate], the IC50 came to 0.92 nM.

On to `COC(=O)c1c(N)c2ccc(C(F)(F)F)nc2n(-c2ccc(N)cc2)c1=O` [Example 274, methyl 4-amino-1-(4-aminophenyl)-2-oxo-7-(trifluoromethyl)-1,2-dihydro-1,8-naphthyridine-3-carboxylate], for which the IC50 was 0.53 nM.

For `COC(=O)c1c(N)c2ccc(Br)nc2n(-c2ccc(I)cc2)c1=O` [Example 275, methyl 4-amino-7-bromo-1-(4-iodophenyl)-2-oxo-1,2-dihydro-1,8-naphthyridine-3-carboxylate], the IC50 is 0.15 nM.

In the case of `COC(=O)c1c(N)c2ccc(Br)nc2n(-c2cnc(N)cc2C)c1=O` [Example 280, methyl 4-amino-1-(6-amino-4-methylpyridin-3-yl)-7-bromo-2-oxo-1,2-dihydro-1,8-naphthyridine-3-carboxylate], the half-maximal inhibitory concentration (IC50) came out at 1.72 nM.
